In ChEMBL document CHEMBL2203027, “Lanostanoids from fungi: a group of potential anticancer compounds” (J Nat Prod, 2012):
Values after ≈ are worked out from the molar mass of the structure shown.

Test system: HeLa
Assay: Cytotoxicity against human HeLa cells
Type: functional, cell-based
Conditions: Homo sapiens, HeLa

Q: With `CC(=O)O[C@@H]1C(=O)C2=C(C(=O)C[C@H]3C(C)(C)[C@@H](O)CC[C@]23C)[C@]2(C)C(=O)C[C@H]([C@H](C)CC(=O)CC(C)C(=O)O)[C@@]12C` (stereo not given in full) [GANODERIC ACID H] as the molecule, how does the IC50 read?
A: > 300 µM

Q: With `CC(CC(=O)C[C@@H](C)[C@H]1C[C@H](O)[C@@]2(C)C3=C(C(=O)C[C@]12C)[C@@]1(C)CCC(=O)C(C)(C)[C@@H]1CC3=O)C(=O)O` (stereo not given in full) [GANODERIC ACID J] as the molecule, how does the IC50 read?
A: > 300 µM

Q: For `CC(=O)O[C@@H]1C(=O)C2=C([C@@H](O)C[C@H]3C(C)(C)[C@@H](O)CC[C@]23C)[C@]2(C)C(=O)C[C@H]([C@H](C)CC(=O)CC(C)C(=O)O)[C@@]12C` (stereo not given in full) [GANODERIC ACID K], which IC50 is on record?
A: > 300 µM

Q: With `C/C(=C\CC[C@@H](C)[C@H]1CC[C@@]2(C)C3=CC[C@H]4C(C)(C)[C@@H](O)CC[C@]4(C)C3=CC[C@]12C)C(=O)O` [GANODERIC ACID Y] as the molecule, how does the IC50 read?
A: 11 µM

Q: Which IC50 does the source give for `C[C@H](CC[C@@H](O)C(C)(C)O)[C@H]1CC[C@@]2(C)C3=CC[C@H]4C(C)(C)C(=O)CC[C@]4(C)C3=CC[C@]12C` [GANODERMANONDIOL] here?
A: 11 µM

Q: For `C[C@H](CC[C@H](O)[C@](C)(O)CO)[C@H]1CC[C@@]2(C)C3=CC[C@H]4C(C)(C)C(=O)CC[C@]4(C)C3=CC[C@]12C` [GANODERMANONTRIOL], which IC50 is on record?
A: 11 µM

Q: Which IC50 does the source give for `C/C(=C\CC[C@@H](C)[C@H]1CC[C@@]2(C)C3=CC[C@H]4C(C)(C)[C@@H](O)CC[C@]4(C)C3=CC[C@]12C)CO` [GANODEROL B] here?
A: 101 µM

Q: Which IC50 does the source give for `CC(CC(=O)C[C@@H](C)[C@H]1C[C@H](O)[C@@]2(C)C3=C(C(=O)C[C@]12C)[C@@]1(C)CCC(=O)C(C)(C)[C@@H]1CC3)C(=O)O` (stereo not given in full) [GANOLUCIDIC ACID A] here?
A: 101 µM

Q: Which IC50 does the source give for `C/C(=C\CC[C@@H](C)[C@H]1C[C@H](O)[C@@]2(C)C3=C(C(=O)C[C@]12C)[C@@]1(C)CCC(=O)C(C)(C)[C@@H]1CC3)C(=O)O` [GANOLUCIDIC ACID E] here?
A: 11 µM

Q: With `C/C(=C\CC[C@@H](C)[C@H]1CC[C@@]2(C)C3=C(CC[C@]12C)[C@@]1(C)CC[C@H](O)C(C)(C)[C@@H]1CC3=O)CO` [LUCIDADIOL] as the molecule, how does the IC50 read?
A: 5 µM

Q: Which IC50 does the source give for `C[C@H](CCC(=O)O)[C@H]1CC(=O)[C@@]2(C)C3=C(C(=O)C[C@]12C)[C@@]1(C)CCC(=O)C(C)(C)[C@@H]1C[C@@H]3O` [LUCIDENIC ACID A] here?
A: > 300 µM

Q: With `CC(=O)[C@H]1CC(=O)[C@@]2(C)C3=C(C(=O)C[C@]12C)[C@@]1(C)CC[C@H](O)C(C)(C)[C@@H]1C[C@@H]3O` [LUCIDONE A] as the molecule, how does the IC50 read?
A: 101 µM

Q: With `C[C@H](CC[C@H](O)C(C)(C)O)[C@H]1CC[C@@]2(C)C3=C(CC[C@]12C)[C@@]1(C)CCC(=O)C(C)(C)[C@@H]1CC3=O` [LUCIDUMOL A] as the molecule, how does the IC50 read?
A: 11 µM

Q: For `COC(=O)C(C)CC(=O)C[C@@H](C)[C@H]1CC(=O)[C@@]2(C)C3=C(C(=O)[C@@H](OC(C)=O)[C@]12C)[C@@]1(C)CC[C@H](O)C(C)(C)[C@@H]1CC3=O` (stereo not given in full) [METHYL GANODERATE H], which IC50 is on record?
A: 11 µM

Q: With `COC(=O)CC[C@@H](C)[C@H]1CC(=O)[C@@]2(C)C3=C(C(=O)[C@@H](O)[C@]12C)[C@@]1(C)CC[C@H](O)C(C)(C)[C@@H]1C[C@@H]3O` [METHYL LUCIDENATE C] as the molecule, how does the IC50 read?
A: 101 µM

Same assay, conditions: hela

Q: With `CC(CC(=O)C[C@@H](C)[C@H]1CC(=O)[C@@]2(C)C3=C(C(=O)C[C@]12C)[C@@]1(C)CCC(=O)C(C)(C)[C@@H]1C[C@@H]3O)C(=O)O` (stereo in doubt; 10) [GANODERIC ACID D] as the molecule, how does the IC50 read?
A: 31 µM

Q: Which IC50 does the source give for `CC(CC(=O)C[C@@H](C)[C@H]1CC(=O)[C@@]2(C)C3=C(C(=O)C[C@]12C)[C@@]1(C)CCC(=O)C(C)(C)[C@@H]1C[C@@H]3O)C(=O)O` (stereo in doubt; 81) [GANODERIC ACID D] here?
A: > 300 µM

Test system: L1210
Assay: Cytotoxicity against mouse L1210 cells
Type: functional, cell-based
Conditions: not given

Q: Which IC50 does the source give for `CC(C)=CCC[C@@H](C=O)[C@H]1CC[C@@]2(C)C3=C(CC[C@]12C)[C@@]1(C)CC[C@H](O)C(C)(C)[C@@H]1CC3` here?
A: 34.4 µM

Q: For `CC(C)=CCC[C@@H](C(=O)O)[C@H]1CC[C@@]2(C)C3=C(CC[C@]12C)[C@@]1(C)CC[C@H](O)C(C)(C)[C@@H]1CC3` [TRAMETENOLIC ACID], which IC50 is on record?
A: 62.5 µM

Test system: HL-60
Assay: Cytotoxicity against human HL60 cells
Type: functional, cell-based
Conditions: not given

Q: With `CC(=O)O[C@H]1CC[C@]2(C)C3=C(CC[C@H]2C1(C)C)[C@]1(C)CC[C@H]([C@@H](CCC=C(C)C)C(=O)O)[C@@]1(C)CC3` [ACETYL TRAMETENOLIC ACID] as the molecule, how does the IC50 read?
A: 25 µM

Q: For `C=C(C)[C@@H]1CCC2=C(CC[C@]3(C)[C@@H]([C@@H](CCC=C(C)C)C(=O)O)[C@H](O)C[C@@]23C)[C@@]1(C)CCC(=O)O` [PORICOIC ACID G], which GI50 is on record?
A: 0.0393 µM

Organism: Mus musculus
Assay: Inhibition of TPA-induced tumor progression in mouse skin at 0.2 umol measured at week 20
Type: functional
Conditions: not given

Q: Which “inhibition (INH)” value does the source give for `C=C(CC[C@@H](C(=O)O)[C@H]1[C@H](O)C[C@@]2(C)C3=CC[C@H]4C(C)(C)[C@H](OC(C)=O)CC[C@]4(C)C3=CC[C@]12C)C(C)C` here?
A: 92%

Test system: not listed separately
Assay: Cytotoxicity against mouse Meth-A cells
Type: functional, cell-based
Conditions: read-out: ED50 (the source's name)

Q: Which EC50 does the source give for `C/C(=C\[C@@H](O)C[C@@H](C)[C@H]1CC(=O)[C@@]2(C)C3=C(C(=O)[C@@H](O)[C@]12C)[C@@]1(C)CC[C@H](O)C(C)(C)[C@@H]1CC3=O)C(=O)O` [GANODERIC ACID THETA] here?
A: 2.3 µg/mL (≈ 4.33 µM)

Q: For `C[C@H](CC[C@@H](O)C(C)(C)O)[C@H]1CC[C@@]2(C)C3=CC[C@H]4C(C)(C)C(=O)CC[C@]4(C)C3=CC[C@]12C` [GANODERMANONDIOL], which EC50 is on record?
A: 3.4 µg/mL (≈ 7.44 µM)

Q: Which EC50 does the source give for `C[C@H](CC[C@H](O)[C@](C)(O)CO)[C@H]1CC[C@@]2(C)C3=CC[C@H]4C(C)(C)C(=O)CC[C@]4(C)C3=CC[C@]12C` [GANODERMANONTRIOL] here?
A: 2.3 µg/mL (≈ 4.87 µM)

Q: For `C[C@H](CC[C@H](O)C(C)(C)O)[C@H]1CC[C@@]2(C)C3=C(CC[C@]12C)[C@@]1(C)CCC(=O)C(C)(C)[C@@H]1CC3=O` [LUCIDUMOL A], which EC50 is on record?
A: 2.3 µg/mL (≈ 4.87 µM)

Test system: not listed separately
Assay: Cytotoxicity against mouse LLC cells
Type: functional, cell-based
Conditions: Lewis lung carcinoma, read-out: ED50 (the source's name)

Q: With `C/C(=C\[C@@H](O)C[C@@H](C)[C@H]1CC(=O)[C@@]2(C)C3=C(C(=O)[C@@H](O)[C@]12C)[C@@]1(C)CC[C@H](O)C(C)(C)[C@@H]1CC3=O)C(=O)O` [GANODERIC ACID THETA] as the molecule, how does the EC50 read?
A: 2.3 µg/mL (≈ 4.33 µM)

Q: For `C[C@H](CC[C@@H](O)C(C)(C)O)[C@H]1CC[C@@]2(C)C3=CC[C@H]4C(C)(C)C(=O)CC[C@]4(C)C3=CC[C@]12C` [GANODERMANONDIOL], which EC50 is on record?
A: 2.3 µg/mL (≈ 5.04 µM)

Q: With `C[C@H](CC[C@H](O)[C@](C)(O)CO)[C@H]1CC[C@@]2(C)C3=CC[C@H]4C(C)(C)C(=O)CC[C@]4(C)C3=CC[C@]12C` [GANODERMANONTRIOL] as the molecule, how does the EC50 read?
A: 2.3 µg/mL (≈ 4.87 µM)

Q: For `C[C@H](CC[C@H](O)C(C)(C)O)[C@H]1CC[C@@]2(C)C3=C(CC[C@]12C)[C@@]1(C)CCC(=O)C(C)(C)[C@@H]1CC3=O` [LUCIDUMOL A], which EC50 is on record?
A: 2.3 µg/mL (≈ 4.87 µM)
